Reference: the NIST ThermoML archive (doi:10.1021/je100102q)
± gives the expanded uncertainty stated by the source.

Details: Gas, isochoric method

FCC(F)(F)F [1,1,1,2-tetrafluoroethane]
Details | molar volume [m3/mol]
253.09 K, 107.6 kPa | 0.01875 ± 0.00016
272.92 K, 158.9 kPa | 0.01358 ± 0.00016
282.69 K, 329.1 kPa | 0.006516 ± 0.00016
282.8 K, 121.4 kPa | 0.01878 ± 0.00016
292.87 K, 171.9 kPa | 0.0136 ± 0.00016
292.89 K, 126.2 kPa | 0.01878 ± 0.00016
302.58 K, 357.7 kPa | 0.006522 ± 0.00016
313.1 K, 135.4 kPa | 0.0188 ± 0.00016
313.1 K, 184.9 kPa | 0.01361 ± 0.00016
323.07 K, 386.5 kPa | 0.006528 ± 0.00016
333.03 K, 144.3 kPa | 0.01882 ± 0.00016
333.03 K, 1610.8 kPa | 0.001248 ± 0.00016
333.05 K, 197.5 kPa | 0.01362 ± 0.00016
342.96 K, 413.7 kPa | 0.006533 ± 0.00016
343 K, 1706.9 kPa | 0.001248 ± 0.00016
352.93 K, 153.2 kPa | 0.01883 ± 0.00016
352.94 K, 1798.6 kPa | 0.001249 ± 0.00016
353.04 K, 210 kPa | 0.01363 ± 0.00016
362.89 K, 440.7 kPa | 0.006539 ± 0.00016
362.9 K, 1888.6 kPa | 0.001249 ± 0.00016
372.82 K, 454 kPa | 0.006542 ± 0.00016
372.84 K, 162.1 kPa | 0.01885 ± 0.00016
372.87 K, 1976.6 kPa | 0.00125 ± 0.00016
372.99 K, 222.4 kPa | 0.01364 ± 0.00016

C=C(F)C(F)(F)F [2,3,3,3-tetrafluoro-1-propene]
Details | molar volume [m3/mol]
243.07 K, 98 kPa | 0.01911 ± 0.00016
243.08 K, 84.5 kPa | 0.02278 ± 0.00016
248.02 K, 86.5 kPa | 0.02278 ± 0.00016
249.15 K, 87 kPa | 0.02278 ± 0.00016
253.01 K, 105.1 kPa | 0.01912 ± 0.00016
253.07 K, 88.5 kPa | 0.02278 ± 0.00016
258.03 K, 90.4 kPa | 0.02279 ± 0.00016
262.93 K, 171.7 kPa | 0.01189 ± 0.00016
262.97 K, 109.8 kPa | 0.01913 ± 0.00016
263.08 K, 92.4 kPa | 0.02279 ± 0.00016
267.98 K, 94.2 kPa | 0.0228 ± 0.00016
272.84 K, 179.3 kPa | 0.01189 ± 0.00016
272.92 K, 114.4 kPa | 0.01914 ± 0.00016
273.04 K, 96.2 kPa | 0.0228 ± 0.00016
277.99 K, 98 kPa | 0.02281 ± 0.00016
282.62 K, 118.8 kPa | 0.01914 ± 0.00016
282.68 K, 186.6 kPa | 0.0119 ± 0.00016
282.75 K, 430.2 kPa | 0.004676 ± 0.00016
282.95 K, 99.9 kPa | 0.02281 ± 0.00016
283 K, 394.6 kPa | 0.005292 ± 0.00016
287.79 K, 101.7 kPa | 0.02282 ± 0.00016
287.93 K, 447.1 kPa | 0.004677 ± 0.00016
287.99 K, 403.8 kPa | 0.005293 ± 0.00016
292.58 K, 193.9 kPa | 0.0119 ± 0.00016
292.76 K, 103.6 kPa | 0.02282 ± 0.00016
292.81 K, 457.2 kPa | 0.004678 ± 0.00016
292.95 K, 412.8 kPa | 0.005295 ± 0.00016
292.99 K, 123.5 kPa | 0.01915 ± 0.00016
293.1 K, 508.2 kPa | 0.004171 ± 0.00016
297.8 K, 105.5 kPa | 0.02283 ± 0.00016
297.89 K, 467.6 kPa | 0.00468 ± 0.00016
298.08 K, 422.1 kPa | 0.005296 ± 0.00016
302.7 K, 201.4 kPa | 0.01191 ± 0.00016
302.91 K, 477.9 kPa | 0.004681 ± 0.00016
303.09 K, 431.1 kPa | 0.005297 ± 0.00016
303.11 K, 703.6 kPa | 0.002968 ± 0.00016
303.12 K, 107.4 kPa | 0.02284 ± 0.00016
303.12 K, 128.1 kPa | 0.01916 ± 0.00016
303.12 K, 531.3 kPa | 0.004173 ± 0.00016
308.1 K, 439.9 kPa | 0.005298 ± 0.00016
308.11 K, 109.3 kPa | 0.02284 ± 0.00016
308.11 K, 488.4 kPa | 0.004682 ± 0.00016
313.09 K, 448.7 kPa | 0.005299 ± 0.00016
313.11 K, 111.2 kPa | 0.02285 ± 0.00016
313.11 K, 498.5 kPa | 0.004683 ± 0.00016
313.11 K, 554 kPa | 0.004174 ± 0.00016
313.11 K, 738.1 kPa | 0.002969 ± 0.00016
313.12 K, 132.7 kPa | 0.01917 ± 0.00016
313.12 K, 209 kPa | 0.01192 ± 0.00016
318.09 K, 457.5 kPa | 0.0053 ± 0.00016
318.09 K, 508.5 kPa | 0.004684 ± 0.00016
318.1 K, 113 kPa | 0.02285 ± 0.00016
318.11 K, 861.5 kPa | 0.002534 ± 0.00016
323.07 K, 518.3 kPa | 0.004685 ± 0.00016
323.08 K, 114.9 kPa | 0.02286 ± 0.00016
323.08 K, 466.1 kPa | 0.005302 ± 0.00016
323.09 K, 216.2 kPa | 0.01192 ± 0.00016
323.09 K, 576.5 kPa | 0.004176 ± 0.00016
323.09 K, 771.8 kPa | 0.00297 ± 0.00016
323.1 K, 137.1 kPa | 0.01918 ± 0.00016
328.06 K, 474.7 kPa | 0.005303 ± 0.00016
328.06 K, 528.3 kPa | 0.004686 ± 0.00016
328.06 K, 901.7 kPa | 0.002535 ± 0.00016
328.07 K, 116.8 kPa | 0.02286 ± 0.00016
333.04 K, 118.8 kPa | 0.02286 ± 0.00016
333.04 K, 483.3 kPa | 0.005304 ± 0.00016
333.04 K, 538.1 kPa | 0.004687 ± 0.00016
333.05 K, 537.8 kPa | 0.004687 ± 0.00016
333.05 K, 598.7 kPa | 0.004178 ± 0.00016
333.05 K, 804.7 kPa | 0.002972 ± 0.00016
333.06 K, 141.6 kPa | 0.01919 ± 0.00016
333.06 K, 223.4 kPa | 0.01192 ± 0.00016
338 K, 1538.8 kPa | 0.001325 ± 0.00016
338.01 K, 491.8 kPa | 0.005305 ± 0.00016
338.02 K, 941.5 kPa | 0.002536 ± 0.00016
338.03 K, 120.6 kPa | 0.02287 ± 0.00016
338.03 K, 547.6 kPa | 0.004688 ± 0.00016
342.99 K, 146.1 kPa | 0.0192 ± 0.00016
342.99 K, 500.3 kPa | 0.005306 ± 0.00016
343 K, 122.5 kPa | 0.02287 ± 0.00016
343 K, 230.6 kPa | 0.01193 ± 0.00016
343.01 K, 557.3 kPa | 0.004689 ± 0.00016
343.01 K, 620.6 kPa | 0.00418 ± 0.00016
343.02 K, 837.4 kPa | 0.002973 ± 0.00016
347.94 K, 1624.6 kPa | 0.001325 ± 0.00016
347.94 K, 2217.8 kPa | 0.000789 ± 0.00016
347.96 K, 508.8 kPa | 0.005307 ± 0.00016
347.97 K, 124.3 kPa | 0.02288 ± 0.00016
347.98 K, 980.2 kPa | 0.002537 ± 0.00016
347.98 K, 2157.7 kPa | 0.000833 ± 0.00016
347.99 K, 567 kPa | 0.00469 ± 0.00016
352.91 K, 517.2 kPa | 0.005309 ± 0.00016
352.91 K, 2303.2 kPa | 0.000789 ± 0.00016
352.96 K, 126.1 kPa | 0.02288 ± 0.00016
352.96 K, 576.6 kPa | 0.004691 ± 0.00016
352.96 K, 642.4 kPa | 0.004182 ± 0.00016
352.96 K, 869.4 kPa | 0.002974 ± 0.00016
352.98 K, 150.6 kPa | 0.0192 ± 0.00016
352.98 K, 237.7 kPa | 0.01194 ± 0.00016
352.99 K, 2237.2 kPa | 0.000833 ± 0.00016
357.86 K, 2385.6 kPa | 0.000789 ± 0.00016
357.88 K, 525.6 kPa | 0.00531 ± 0.00016
357.92 K, 128 kPa | 0.02289 ± 0.00016
357.93 K, 586.2 kPa | 0.004692 ± 0.00016
357.93 K, 1018.7 kPa | 0.002538 ± 0.00016
357.95 K, 1709 kPa | 0.001326 ± 0.00016
357.95 K, 2314.1 kPa | 0.000833 ± 0.00016
362.83 K, 2467.7 kPa | 0.000789 ± 0.00016
362.86 K, 534 kPa | 0.005311 ± 0.00016
362.89 K, 129.8 kPa | 0.02289 ± 0.00016
362.89 K, 2389.2 kPa | 0.000833 ± 0.00016
362.92 K, 595.8 kPa | 0.004693 ± 0.00016
362.92 K, 664 kPa | 0.004184 ± 0.00016
362.92 K, 3067.5 kPa | 0.000251
362.93 K, 155 kPa | 0.01921 ± 0.00016
362.93 K, 901.2 kPa | 0.002976 ± 0.00016
362.96 K, 244.9 kPa | 0.01194 ± 0.00016
367.8 K, 2548.9 kPa | 0.000789 ± 0.00016
367.83 K, 542.5 kPa | 0.005312 ± 0.00016
367.87 K, 131.9 kPa | 0.0229 ± 0.00016
367.88 K, 1057 kPa | 0.002539 ± 0.00016
367.88 K, 2463.9 kPa | 0.000834 ± 0.00016
367.89 K, 605.3 kPa | 0.004694 ± 0.00016
367.92 K, 1791.4 kPa | 0.001326 ± 0.00016
367.92 K, 3386.9 kPa | 0.000251
372.8 K, 2629.5 kPa | 0.000789 ± 0.00016
372.81 K, 550.9 kPa | 0.005313 ± 0.00016
372.82 K, 133.8 kPa | 0.0229 ± 0.00016
372.84 K, 932.4 kPa | 0.002977 ± 0.00016
372.85 K, 1075.9 kPa | 0.00254 ± 0.00016
372.85 K, 2537.2 kPa | 0.000834 ± 0.00016
372.87 K, 614.8 kPa | 0.004695 ± 0.00016
372.88 K, 159.4 kPa | 0.01922 ± 0.00016
372.88 K, 252 kPa | 0.01195 ± 0.00016
372.88 K, 685.4 kPa | 0.004185 ± 0.00016
372.88 K, 3715.9 kPa | 0.000251
